Test results reported in US5449662A, “Atrial natriuretic peptide clearance inhibitors which resist degradation” (Scios Nova Inc., priority 1992, dated 1995).

Tested on: Female Sprague-Dawley rats
Test: In vivo diuresis and natriuresis in anesthetized rats
Set-up: species or system rat
Conditions: 300 ng/kg/min infusion, mean ± SE, n = 7
Method: The ability of analog #1 to effect diuresis and natriuresis in whole animals was determined as follows. Female Sprague-Dawley rats (230-260 g) anesthetized with inactin (100 mg/kg body weight) were catheterized by placing cannulae in femoral artery (B.P. monitoring), femoral vein (infusion of drugs and saline) and bladders (collection of urine). Post surgery, and prior to administration of test substance, saline was infused at 20 ul/min for 45 min in order to stabilize urine flow. Stabilization of urine flow was determined by collection of urine during several 10 min periods. Once stable urine flow was obtained, three 10 min control periods were collected followed by infusion of test compounds at 20 ul/min for 1 hr after priming with 10 times the infusion dose. Following experimental infusion period, saline was infused at 20 ul/min for 2 additional hr during the recovery phase. The urine volume collected during ten minute collection periods was determined gravimetrically. Urinary sodium excretion UNa V was determined photometrically.
Analog #1 infused at 10 ug/kg/min gives a mean 10-fold increase in urinary sodium excretion and a 2- to 3-fold increase in urinary flow rate. Maximal effects are not observed until the second or third experimental collection period and are sustained through the infusion.

hANP(102-126): human atrial natriuretic peptide 102-126, comparison in rat diuresis/natriuresis (WDSSDRSALLKSKLRALLTAPRSLR; Atrial natriuretic factor; UniProt P01160 102-126, looked up, fragment)
UNa V (urinary sodium excretion), difference between experimental and control periods: 2.24 ± 0.77 uEq/min
V (urine flow), difference between experimental and control periods: 16.8 ± 9.3 µL/min
